Converted amounts (≈) assume the structure as drawn.
Assays:
physchem [1] = details: pH 7.4
physchem [2] = details: water, thermodynamic from solid
in vitro [3] = details: human, microsomes
in vitro [4] = details: male, mouse, microsomes
[5] = buffer
AD tau = AD tau (Homo sapiens, UniProt P10636); assay type: cell-based
[6] = Kinetic solubility in simulated intestinal fluid (SIF); details: pH 6.8

Chain of AD tau (P10636 623-695 limits assumed): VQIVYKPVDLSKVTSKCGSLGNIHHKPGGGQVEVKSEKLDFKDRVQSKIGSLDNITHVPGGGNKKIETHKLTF

With O=C1c2c(O)cc(O)cc2O[C@H](c2cc(O)c(O)c(O)c2)[C@H]1O [DHM, dihydromyricetin] as the compound, how does the logD at 1 h (physchem [1]) read?
The logD at 1 h was 0.63.

What about the solubility thermodynamic (physchem [2]) of the same compound?
The solubility thermodynamic was 650 µg/mL (≈ 2030 µM).

And the half-life at 1 µM (in vitro [3])?
Its half-life at 1 µM is 3.38 h.

And the remaining at 1 h, 1 µM (in vitro [3])?
Its remaining at 1 h, 1 µM is about 100%.

What about the half-life at 1 µM (in vitro [4]) of the same compound?
The half-life at 1 µM was 1.57 h.

What about the “Fraction remaining dissolved in aqueous solution after centrifugation” value [5] of the same compound?
The value was “about 20%”.

Which “Inhibitory activity of counterions toward tau seeding” value (AD tau) does the source give for [Ca+2].[OH-].[OH-] [Ca(OH)2, calcium hydroxide] here?
Its value is “neither TEA nor Ca(OH)2 exhibited inhibitory activity”.

For O=C(O)Cc1ccccc1Nc1c(Cl)cccc1Cl [diclofenac], which solubility kinetic at 2 h [6] is on record?
The solubility kinetic at 2 h was about 300 µM (≈ 88.8 µg/mL).

From PMC11756387, “Improving the solubility of pseudo-hydrophobic chemicals through co-crystal formulation” (PNAS Nexus, 2025)
